Data set [1] deals with Cryptococcus neoformans (ATCC 90113). The data set can be described thus: Antifungal evaluation, IC50 against C. neoformans. The data set is classed as cell-based. The conditions noted are these: RPMI 1640; for IC50: Cryptococcus neoformans, ATCC90113, incubated 70–74 h at 35 °C. Here is the method: (§1) The three new polyketides 1–3 were evaluated for antifungal activity against Cryptococcus neoformans (ATCC 90113), Candida albicans (Y0109), Trichophyton rubrum (Cmccftla) and Microsporum gypseum (Cmccfmza) (Table 2), for in vitro cytotoxic activity against human cancer cell lines, HCT-116 (colon cancer), A549 (lung carcinoma), HeLa (cervical cancer), QGY-7703 (hepatocarcinoma), and MDA231 (breast adenocarcinoma) (Table 3), and protein tyrosine phosphatase 1B (PTP1B) inhibitory activity (Table 3). […] Cytotoxicity of compound 3 against A549, HeLa, QGY-7703, and MDA231 cell lines was weaker when compared to that of 1. […] The PTP1B inhibitors are recognized as potential therapeutic agents for the treatment of type II diabetes and obesity.
Optical rotations were determined with a Perkin-Elmer 341 polarimeter with 1 mm cell. IR spectra were recorded on a Bruker vector 22 spectrometer with KBr pellets. The NMR experiments were conducted on Bruker AVANCE-600 and Bruker AMX-500 instruments. HRESIMS and ESIMS were obtained on a Q-Tof micro YA019 mass spectrometer. In antifungal evaluation, IC50 values were calculated on XLfit 4.2 software (IDBS: Alameda, CA, USA, 2005). Reversed-phase HPLC was performed on YMC-Pack Pro C18 RS (5 μm) columns with a Waters 1525/2998 liquid chromatograph. Column chromatographies were carried out on silica gel 60 (200–300 mesh; Yantai, China), Sephadex LH-20 (Amersham Biosciences). TLC was carried out using HSGF 254 plates and visualized by spraying with anisaldehyde-H2SO4 reagent.
(§2) Antifungal IC50 values of woodylides A–C against C. neoformans were calculated as described by Ikhlas A. Khan et al.. Amphotericin B was used as the positive control. Minimal Inhibition Concentration (MIC) values of woodylides A–C were determined against three indicators (C. albicans, T. rubrum, and M. gypseum), following the […] (NCCLS) methods. Fluconazole was used as the positive control. Briefly, samples (dissolved in DMSO) were serially diluted in 20% DMSO/saline and transferred (10 µL) in duplicate to 96 well flat bottom microplates. Bacterial strains were grown aerobically at 30 °C in SDA for 16–20 h. A set of different concentrations of compounds 1–3 prepared in RPMI 1640 were next inoculated with the microorganisms and incubated 70–74 h for C. neoformans at 35 °C, 46 h for C. albicans at 35 °C, and 4–7 days for T. rubrum and M. gypseum at 30 °C. The IC50 values were calculated by using the fit model 201 of XLfit 4.2 software.

In data set [2] the test system is Candida albicans (Y0109). The data set can be described thus: Antifungal evaluation, MIC (NCCLS broth dilution). In kind it is cell-based. Particulars: 46 h at 35 °C, range 1.25–640 μg/mL. Here is the method: as §1, §2
For data set [3], the system named is Trichophyton rubrum (Cmccftla). The data set can be described thus: Antifungal evaluation, MIC (NCCLS broth dilution). The data set is classed as cell-based. Particulars: 4–7 days at 30 °C, range 1.25–640 μg/mL, read-out: Antifungal Activity T. rubrum, MIC. Here is the method:
as §1, §2

In data set [4] the test system is Microsporum gypseum (Cmccfmza). As to the kind of experiment: Antifungal evaluation, MIC (NCCLS broth dilution). Particulars: Nannizzia gypsea, 4–7 days at 30 °C, range 1.25–640 μg/mL. In kind it is cell-based. On the procedure:
as §1, §2

Data set [5] is described as follows: Cytotoxicity MTT assay. In kind it is cell-based, human. Particulars: human, HeLa cells (cervical cancer), 48 h treatment, 1 to 100 μg/mL. On the procedure:
(§3) Cytotoxicity of compound 3 against A549, HeLa, QGY-7703, and MDA231 cell lines was weaker when compared to that of 1. […] The PTP1B inhibitors are recognized as potential therapeutic agents for the treatment of type II diabetes and obesity. The cytotoxicity of compounds 1-3 against HCT-116, A549, HeLa, QGY-7703, and MDA231 cell lines was evaluated by the MTT assay as described in a previous report. Briefly, compounds were solubilized in DMSO with the working concentration of test substances ranging from 1 to 100 μg/mL. Cells at the exponential growth phase were harvested and seeded into 96-well plates. After incubation for 24 h, the cells were treated with various concentrations of test substances for 48 h and then incubated with 1 mg/mL MTT at 37 °C for 4 h, followed by dissolving in DMSO. The produced formazan was measured by the absorbance at 570 nm on a microplate reader. The IC50 values were calculated on the basis of percentage inhibition using the linear regression method.
In general terms: Tetrazolium assays rely on reduction of a dye to a coloured formazan, in cell work by metabolically active cells.

Data set [6] relates to HeLa (cervical cancer). The data set can be described thus: Cytotoxicity MTT assay. The conditions noted are these: 48 h treatment, 1 to 100 μg/mL. In kind it is cell-based, human. On the procedure:
as §3

Data set [7] can be described thus: Cytotoxicity MTT assay. The data set is classed as cell-based. Particulars: human, 48 h treatment, 1 to 100 μg/mL. Here is the method: as §3
In data set [8] the target is T1, protein tyrosine phosphatase 1B (PTP1B) (Homo sapiens, UniProt P18031).
T1 construct: The enzymatic activities of the PTP1B catalytic domain were determined at 30 °C by monitoring the hydrolysis of pNPP
T1 sequence (P18031 3-277 limits assumed): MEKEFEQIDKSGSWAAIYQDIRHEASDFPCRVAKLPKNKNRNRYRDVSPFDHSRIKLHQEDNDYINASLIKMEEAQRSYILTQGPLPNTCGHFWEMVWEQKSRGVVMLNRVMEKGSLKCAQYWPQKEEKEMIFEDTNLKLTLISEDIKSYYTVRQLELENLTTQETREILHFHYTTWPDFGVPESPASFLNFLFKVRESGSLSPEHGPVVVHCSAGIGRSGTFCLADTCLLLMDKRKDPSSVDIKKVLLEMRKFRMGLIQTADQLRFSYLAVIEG
As to the kind of experiment: PTP1B inhibitory assay (pNPP hydrolysis). In kind it is biochemical. The conditions noted are these: recombinant PTP1B catalytic domain, 30 °C, pH 6.5. Here is the method: The enzymatic activities of the PTP1B catalytic domain were determined at 30 °C by monitoring the hydrolysis of pNPP.

Converted amounts (≈) assume the structure as drawn.

For the molecule `C[C@@H]1[C@H](O)[C@@H](C)/C=C/C=C/C=C/C=C/C=C/C=C/C=C/[C@H](O[C@@H]2O[C@H](C)[C@@H](O)[C@H](N)[C@@H]2O)C[C@@H]2O[C@](O)(C[C@@H](O)C[C@@H](O)[C@H](O)CC[C@@H](O)C[C@@H](O)CC(=O)O[C@H]1C)C[C@H](O)[C@H]2C(=O)O` [Amphotericin B, reference compound], in data set [1], the IC50 (as a rule, the concentration at which inhibition is half-maximal) came to 0.35 µg/mL (≈ 0.379 µM).

For `CCCCC(C)CC(O)(/C=C(/CC)[C@@H](O)CC(=O)OC)CC` (some centres unmarked) [Compound 1, Woodylide A], the MIC in data set [2], in data set [3] and in data set [4] was 32 µg/mL (≈ 102 µM) throughout. The figures for the half-maximal inhibitory concentration (IC50) at 48 h in data set [5], in data set [7] (A549 cells (lung carcinoma)) and in data set [7] (QGY-7703 cells (hepatocarcinoma)) were 11.2 µg/mL (≈ 35.6 µM), 37.8 µg/mL (≈ 120 µM) and 25.8 µg/mL (≈ 82 µM), respectively. Further, the “Cytotoxicity IC50 HeLa” value in data set [6] was found to be 11.22 µg/mL. The molecule also showed an IC50 in data set [1] of 3.67 µg/mL (≈ 11.7 µM).

Turning to `CCCCC(CC)CC(O)(/C=C(/CC)[C@@H](O)CC(=O)OC)CC` (some centres unmarked) [Compound 2, Woodylide B], in data set [1] (incubated 70–74 h at 35 °C), the “Antifungal Activity C. neoformans, IC50” value was “inactive”.

On to `CCCCC(C)CC(O)(C=C(CC)C(O)CC(=O)O)CC` (centres unmarked) [Compound 3, Woodylide C], for which the MIC in data set [3] and in data set [4] was 32 µg/mL (≈ 107 µM) in each case. Besides, the figures for the IC50 in data set [8] and in data set [1] were 15.6 µM and 10.8 µg/mL (≈ 36.1 µM), respectively. In data set [7] (HCT-116 cells (colon cancer)), this molecule showed an IC50 at 48 h of 9.4 µg/mL (≈ 31.3 µM).

For the molecule `OC(Cn1cncn1)(Cn1cncn1)c1ccc(F)cc1F` [Fluconazole, reference compound], the minimal inhibitory concentration (MIC) – broadly, the lowest concentration found to suppress growth – in data set [3] was determined as 2 µg/mL (≈ 6.53 µM); in data set [4] it was 8 µg/mL (≈ 26.1 µM).

For the origin of these results see PMC3397464, “Woodylides A–C, New Cytotoxic Linear Polyketides from the South China Sea Sponge Plakortis simplex” (Marine Drugs, 2012).
